This is an account of results in patent US20070249670A1, “Glycogen Phosphorylase Inhibitor Compounds and Pharmaceutical Compositions Thereof” (SMITHKLINE BEECHAM CORPORATION, priority 2004, published 2007).

In this experiment the target is T1, human liver glycogen phosphorylase a (HLGPa) (Homo sapiens, UniProt P06737).
T1 construct: creating a full-length cDNA fused at the 5′ end to codons for methionine-glycine-alanine-histidine; 6xHis tag (leader Met-Gly-Ala-His6-Gly-Gly) (N); made in house; host or cells: E. coli (bacterial expression plasmid pTXK1007LTev)
T1 sequence (P06737 2-847 limits assumed): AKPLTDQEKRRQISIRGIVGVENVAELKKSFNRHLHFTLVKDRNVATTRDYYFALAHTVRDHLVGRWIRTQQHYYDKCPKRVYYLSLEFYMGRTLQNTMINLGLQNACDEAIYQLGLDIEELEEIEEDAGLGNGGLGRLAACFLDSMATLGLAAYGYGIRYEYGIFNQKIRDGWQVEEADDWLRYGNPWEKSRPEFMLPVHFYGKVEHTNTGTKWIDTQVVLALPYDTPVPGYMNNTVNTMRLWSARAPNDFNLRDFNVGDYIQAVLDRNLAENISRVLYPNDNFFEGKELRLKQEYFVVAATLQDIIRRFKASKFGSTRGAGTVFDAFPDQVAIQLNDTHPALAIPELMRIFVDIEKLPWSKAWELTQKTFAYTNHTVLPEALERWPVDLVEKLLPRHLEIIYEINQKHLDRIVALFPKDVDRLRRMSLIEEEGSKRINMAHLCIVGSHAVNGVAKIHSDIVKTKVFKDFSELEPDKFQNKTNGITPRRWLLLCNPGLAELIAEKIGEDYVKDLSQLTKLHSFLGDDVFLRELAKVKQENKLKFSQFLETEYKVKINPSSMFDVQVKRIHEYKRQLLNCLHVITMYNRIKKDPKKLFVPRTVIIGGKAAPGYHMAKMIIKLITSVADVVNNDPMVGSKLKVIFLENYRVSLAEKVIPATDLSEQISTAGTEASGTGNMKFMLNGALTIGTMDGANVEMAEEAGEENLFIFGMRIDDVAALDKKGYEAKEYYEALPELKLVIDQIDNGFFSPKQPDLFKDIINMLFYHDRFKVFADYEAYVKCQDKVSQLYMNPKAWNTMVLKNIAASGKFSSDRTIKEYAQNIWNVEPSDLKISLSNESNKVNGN
The experiment in a line: Human liver glycogen phosphorylase a enzymatic activity assay (coupled, fluorescent resorufin readout, with and without 10 mM glucose). Type of experiment: biochemical. The conditions noted are these: human liver glycogen phosphorylase a enzymatic activity assay.

As a reminder, the IC50 is the concentration needed to halve the response being measured. Low readings indicate higher potency, high ones lower potency. As for `COc1ccc(-c2cc(NC(=O)Nc3c(C)cc(C)cc3C)c(C(=O)N[C@@H](C(=O)O)C(C)C)s2)cc1` [Example 441, N-{[5-[4-(methyloxy)phenyl]-3-({[(2,4,6-trimethylphenyl)amino]carbonyl}amino)-2-thienyl]carbonyl}-D-valine], the half-maximal inhibitory concentration (IC50) was found to be 2110 nM. The compound `CC[C@H](C)[C@H](NC(=O)c1sc(-c2ccc(OC)cc2)cc1NC(=O)Nc1c(C)cc(C)cc1C)C(=O)O` [Example 442, N-{[5-[4-(methyloxy)phenyl]-3-({[(2,4,6-trimethylphenyl)amino]carbonyl}amino)-2-thienyl]carbonyl}-L-isoleucine] returned an IC50 of 51 nM.

Consider `CCCC[C@H](NC(=O)c1sc(-c2ccc(OC)cc2)cc1NC(=O)Nc1c(C)cc(C)cc1C)C(=O)O` [Example 443, N-{[5-[4-(methyloxy)phenyl]-3-({[(2,4,6-trimethylphenyl)amino]carbonyl}amino)-2-thienyl]carbonyl}-L-norleucine], for which the IC50 came out at 43 nM.

In the case of `COc1ccc(-c2cc(NC(=O)Nc3c(C)cc(C)cc3C)c(C(=O)N[C@@H](CC3CCCCC3)C(=O)O)s2)cc1` [Example 444, 3-cyclohexyl-N-{[5-[4-(methyloxy)phenyl]-3-({[(2,4,6-trimethylphenyl)amino]carbonyl}amino)-2-thienyl]carbonyl}-L-alanine], the IC50 was 110 nM. This IC50 is about 2.6-fold higher than that of the compound before. Compound `COc1ccc(-c2cc(NC(=O)Nc3c(C)cc(C)cc3C)c(C(=O)N[C@@H](COC(C)(C)C)C(=O)O)s2)cc1` [Example 445, O-(1,1-dimethylethyl)-N-{[5-[4-(methyloxy)phenyl]-3-({[(2,4,6-trimethylphenyl)amino]carbonyl}amino)-2-thienyl]carbonyl}-L-serine] came in with an IC50 of 82 nM. As to `COc1ccc(-c2cc(NC(=O)Nc3c(C)cc(C)cc3C)c(C(=O)N[C@H](C(=O)O)[C@@H](C)OC(C)(C)C)s2)cc1` [Example 446, O-(1,1-dimethylethyl)-N-{[5-[4-(methyloxy)phenyl]-3-({[(2,4,6-trimethylphenyl)amino]carbonyl}amino)-2-thienyl]carbonyl}-L-threonine], 31 nM corresponded to half-maximal inhibition (IC50). The compound `COc1ccc(-c2cc(NC(=O)Nc3c(C)cc(C)cc3C)c(C(=O)N3CCC[C@H]3C(=O)O)s2)cc1` [Example 447, 1-{[5-[4-(methyloxy)phenyl]-3-({[(2,4,6-trimethylphenyl)amino]carbonyl}amino)-2-thienyl]carbonyl}-L-proline] had an IC50 of 26 nM. The IC50 values of the last two compounds are within 1.5-fold of each other. Then `COc1ccc(-c2cc(NC(=O)Nc3c(C)cc(C)cc3C)c(C(=O)N3CCCC[C@H]3C(=O)O)s2)cc1` [Example 448, (2S)-1-{[5-[4-(methyloxy)phenyl]-3-({[(2,4,6-trimethylphenyl)amino]carbonyl}amino)-2-thienyl]carbonyl}-2-piperidinecarboxylic acid], with 370 nM. As for `COc1ccc(-c2cc(NC(=O)Nc3c(C)cc(C)cc3C)c(C(=O)NC3(C(=O)O)CC3)s2)cc1` [Example 449, 1-({[5-[4-(methyloxy)phenyl]-3-({[(2,4,6-trimethylphenyl)amino]carbonyl}amino)-2-thienyl]carbonyl}amino)cyclopropanecarboxylic acid], inhibition was half-maximal at 340 nM (IC50). In turn, `COc1ccc(-c2cc(NC(=O)Nc3c(C)cc(C)cc3C)c(C(=O)NC3(C(=O)O)CCC3)s2)cc1` [Example 450, 1-({[5-[4-(methyloxy)phenyl]-3-({[(2,4,6-trimethylphenyl)amino]carbonyl}amino)-2-thienyl]carbonyl}amino)cyclobutanecarboxylic acid] registered an IC50 of 250 nM. Compound `COc1ccc(-c2cc(NC(=O)Nc3c(C)cc(C)cc3C)c(C(=O)NC3(C(=O)O)CCCC3)s2)cc1` [Example 451, 1-({[5-[4-(methyloxy)phenyl]-3-({[(2,4,6-trimethylphenyl)amino]carbonyl}amino)-2-thienyl]carbonyl}amino)cyclopentanecarboxylic acid] registered an IC50 of 47 nM.
